# In paper PMC6092513, “Mechanisms Underlying the Strong Inhibition of Muscle-Type Nicotinic Receptors by Tetracaine” (Frontiers in Molecular Neuroscience, 2018):
# Columns and labels:
# [1] = molecular target: T1, muscle-type nicotinic acetylcholine receptor (nAChR) (Torpedo marmorata, UniProt P02711+Q6S3H8+Q6S3H9+Q6S3I0); assay: two-electrode voltage clamp, ACh concentration-current curve in Xenopus oocytes bearing transplanted nAChRs; format: cell-based
# T1 construct: gene CHRNA1; native heteropentameric receptor purified from electroplaques, reconstituted in asolectin lipids and transplanted to Xenopus oocytes; with beta1, gamma and delta nAChR subunits (CHRNB1, CHRNG, CHRND) with two alpha1
# T1 sequence (P02711 25-461): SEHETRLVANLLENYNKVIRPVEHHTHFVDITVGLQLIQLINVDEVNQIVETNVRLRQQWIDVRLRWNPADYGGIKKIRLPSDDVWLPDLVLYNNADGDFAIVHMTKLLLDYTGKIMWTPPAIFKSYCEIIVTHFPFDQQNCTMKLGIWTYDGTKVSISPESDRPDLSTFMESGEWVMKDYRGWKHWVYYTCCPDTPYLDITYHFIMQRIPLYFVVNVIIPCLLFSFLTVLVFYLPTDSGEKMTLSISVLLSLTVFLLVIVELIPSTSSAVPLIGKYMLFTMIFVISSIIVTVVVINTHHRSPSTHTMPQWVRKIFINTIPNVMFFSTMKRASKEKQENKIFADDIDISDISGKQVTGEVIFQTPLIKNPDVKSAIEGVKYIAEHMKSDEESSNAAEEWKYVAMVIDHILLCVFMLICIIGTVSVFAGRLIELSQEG
# T1 sequence (Q6S3I0 25-493): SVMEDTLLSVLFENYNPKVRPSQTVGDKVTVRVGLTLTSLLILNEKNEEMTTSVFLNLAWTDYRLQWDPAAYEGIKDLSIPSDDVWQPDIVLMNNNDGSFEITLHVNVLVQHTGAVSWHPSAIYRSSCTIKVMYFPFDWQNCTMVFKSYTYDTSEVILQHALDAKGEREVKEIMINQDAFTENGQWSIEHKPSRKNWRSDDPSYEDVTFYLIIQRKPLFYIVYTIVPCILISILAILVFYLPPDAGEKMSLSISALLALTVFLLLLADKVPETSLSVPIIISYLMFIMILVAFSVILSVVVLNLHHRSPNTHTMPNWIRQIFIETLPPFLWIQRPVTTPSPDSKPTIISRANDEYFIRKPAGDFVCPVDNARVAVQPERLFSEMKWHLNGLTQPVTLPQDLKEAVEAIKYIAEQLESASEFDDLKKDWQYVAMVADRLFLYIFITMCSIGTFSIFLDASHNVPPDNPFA
# T1 sequence (Q6S3H9 18-505): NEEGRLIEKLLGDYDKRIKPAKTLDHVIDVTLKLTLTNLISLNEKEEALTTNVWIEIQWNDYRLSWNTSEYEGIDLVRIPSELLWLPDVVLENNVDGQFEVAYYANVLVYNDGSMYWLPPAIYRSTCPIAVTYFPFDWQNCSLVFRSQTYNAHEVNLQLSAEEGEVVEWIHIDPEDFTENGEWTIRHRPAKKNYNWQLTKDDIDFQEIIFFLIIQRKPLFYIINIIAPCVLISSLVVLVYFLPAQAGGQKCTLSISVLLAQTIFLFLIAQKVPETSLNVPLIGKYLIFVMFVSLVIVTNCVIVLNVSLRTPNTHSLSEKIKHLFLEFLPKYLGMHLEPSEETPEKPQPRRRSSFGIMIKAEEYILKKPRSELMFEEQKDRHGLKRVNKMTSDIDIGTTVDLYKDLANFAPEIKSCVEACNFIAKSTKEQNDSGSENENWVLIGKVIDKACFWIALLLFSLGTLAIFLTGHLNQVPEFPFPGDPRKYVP
# T1 sequence (Q6S3H8 22-522): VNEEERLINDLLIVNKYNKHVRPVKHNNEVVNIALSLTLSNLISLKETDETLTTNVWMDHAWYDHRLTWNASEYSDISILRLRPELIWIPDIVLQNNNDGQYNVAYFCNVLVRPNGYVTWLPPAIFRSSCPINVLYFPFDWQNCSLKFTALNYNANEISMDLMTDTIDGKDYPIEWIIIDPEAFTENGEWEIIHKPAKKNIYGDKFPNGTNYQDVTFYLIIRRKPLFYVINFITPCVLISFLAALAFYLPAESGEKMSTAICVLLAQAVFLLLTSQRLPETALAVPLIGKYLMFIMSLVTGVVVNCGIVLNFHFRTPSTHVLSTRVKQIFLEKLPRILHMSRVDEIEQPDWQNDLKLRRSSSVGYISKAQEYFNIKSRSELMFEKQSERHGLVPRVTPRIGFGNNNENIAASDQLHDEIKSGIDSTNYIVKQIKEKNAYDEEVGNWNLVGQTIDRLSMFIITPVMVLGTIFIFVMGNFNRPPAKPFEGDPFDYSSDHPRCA
# [2] = molecular target: T1, muscle-type nicotinic acetylcholine receptor (nAChR); assay: two-electrode voltage clamp of ACh-elicited peak currents ([…] ACh) in Xenopus oocytes bearing transplanted nAChRs; format: cell-based
IC50 [2] [µM],Compound,EC50 [1] [µM]
–,"CC(=O)OCC[N+](C)(C)C [ACh, acetylcholine]",37
0.7,"CCCCNc1ccc(C(=O)OCCN(C)C)cc1 [Ttc, 2-(dimethylamino)ethyl 4-(butylamino)benzoate]",–
